Ki and EC50 data for 17 compounds are collected here from ChEMBL document CHEMBL1143618, “Discovery of a beta-MSH-derived MC-4R selective agonist” (J Med Chem, 2005).

One experiment has as its target Melanocortin receptor 5 (Homo sapiens, UniProt P33032). Briefly: Inhibition of [125I]NDP-alpha-MSH binding to melanocortin-5 receptor expressed in HEK293 cells. The format is cell-based.
Experiment [1] addresses Melanocyte-stimulating hormone receptor (Homo sapiens, UniProt Q01726). Briefly: Inhibition of [125I]NDP-alpha-MSH binding to melanocortin-1 receptor expressed in HEK293 cells. The format is cell-based.
Experiment [2] deals with T1, Melanocortin receptor 4 (Homo sapiens, UniProt P32245). The experiment is described as follows: Inhibition of [125I]NDP-alpha-MSH binding to melanocortin-4 receptor expressed in HEK293 cells. The format is cell-based.
For experiment [3], the target named is T1, Melanocortin receptor 4. The experiment is described as follows: Agonist activity at human Melanocortin-4 receptor as peptide required for 50% maximal cAMP release (n > or =2). The format is functional.
In experiment [4] the target is T2, Melanocortin receptor 3 (Homo sapiens, UniProt P41968). The experiment is described as follows: Inhibition of [125I]-NDP-alpha-MSH binding to melanocortin-3 receptor expressed in HEK293 cells. The format is cell-based.
In experiment [5] the target is Melanocortin receptor 4 (Rattus norvegicus, UniProt P70596). Briefly: Binding affinity for rat melanocortin-4 receptor.
The target in experiment [6] is T2, Melanocortin receptor 3. Briefly: Agonist activity at human Melanocortin-3 receptor as peptide required for 50% maximal cAMP release. The experiment is classed as functional.

T2 sequence (P41968 whole entry): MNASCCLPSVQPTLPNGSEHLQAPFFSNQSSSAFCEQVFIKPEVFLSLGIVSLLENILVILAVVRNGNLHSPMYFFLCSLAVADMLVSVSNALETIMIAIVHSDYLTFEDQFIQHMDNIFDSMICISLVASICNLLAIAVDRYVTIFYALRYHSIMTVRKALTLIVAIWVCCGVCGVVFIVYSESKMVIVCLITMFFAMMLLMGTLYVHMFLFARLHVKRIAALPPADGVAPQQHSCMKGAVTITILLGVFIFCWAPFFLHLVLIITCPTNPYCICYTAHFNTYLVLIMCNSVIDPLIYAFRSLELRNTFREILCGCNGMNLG
T1 sequence (P32245 whole entry): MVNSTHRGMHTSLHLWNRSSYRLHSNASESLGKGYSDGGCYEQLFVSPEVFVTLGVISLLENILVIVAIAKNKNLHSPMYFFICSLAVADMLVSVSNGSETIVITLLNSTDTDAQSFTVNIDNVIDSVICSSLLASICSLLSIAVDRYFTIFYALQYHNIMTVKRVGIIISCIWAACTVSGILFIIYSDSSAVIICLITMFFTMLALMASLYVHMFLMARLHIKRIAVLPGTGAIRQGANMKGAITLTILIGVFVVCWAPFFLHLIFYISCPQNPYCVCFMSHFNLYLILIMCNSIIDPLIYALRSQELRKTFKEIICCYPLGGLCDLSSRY
Chain of Melanocyte-stimulating hormone receptor (Q01726 whole entry): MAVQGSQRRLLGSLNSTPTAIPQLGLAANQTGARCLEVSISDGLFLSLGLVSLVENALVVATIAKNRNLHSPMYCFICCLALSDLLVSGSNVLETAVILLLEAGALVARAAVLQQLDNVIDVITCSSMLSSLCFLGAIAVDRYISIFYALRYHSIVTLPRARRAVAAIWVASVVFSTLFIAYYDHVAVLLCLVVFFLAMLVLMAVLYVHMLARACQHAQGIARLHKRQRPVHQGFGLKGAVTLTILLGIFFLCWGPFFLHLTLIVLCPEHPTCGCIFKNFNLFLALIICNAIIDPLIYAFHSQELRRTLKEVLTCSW
Chain of Melanocortin receptor 5 (P33032 whole entry): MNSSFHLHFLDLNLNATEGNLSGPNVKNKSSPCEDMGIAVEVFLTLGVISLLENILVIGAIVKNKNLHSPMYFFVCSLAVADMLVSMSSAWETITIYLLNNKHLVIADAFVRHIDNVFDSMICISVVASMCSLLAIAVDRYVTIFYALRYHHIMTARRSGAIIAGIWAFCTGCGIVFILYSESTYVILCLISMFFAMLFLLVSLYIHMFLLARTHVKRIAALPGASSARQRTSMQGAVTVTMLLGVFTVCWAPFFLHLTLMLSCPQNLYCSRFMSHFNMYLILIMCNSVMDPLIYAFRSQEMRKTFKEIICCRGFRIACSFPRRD
Chain of Melanocortin receptor 4 (Rattus norvegicus, UniProt P70596) (P70596 whole entry): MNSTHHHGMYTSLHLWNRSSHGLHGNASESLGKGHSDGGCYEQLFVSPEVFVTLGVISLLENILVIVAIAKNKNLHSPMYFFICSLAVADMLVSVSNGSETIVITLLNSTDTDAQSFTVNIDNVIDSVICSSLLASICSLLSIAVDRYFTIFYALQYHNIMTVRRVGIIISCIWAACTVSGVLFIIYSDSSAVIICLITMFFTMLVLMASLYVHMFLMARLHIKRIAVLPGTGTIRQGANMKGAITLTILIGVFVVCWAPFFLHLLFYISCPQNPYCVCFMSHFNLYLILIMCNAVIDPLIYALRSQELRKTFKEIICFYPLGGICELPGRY

Usually Ki stands for the equilibrium dissociation constant of an inhibitor or competing ligand from its target. A high value points to lower affinity. By EC50 is commonly meant the concentration giving half of the maximal effect. Read a low EC50 as greater potency. Consider `CC(=O)N[C@@H](Cc1ccc(O)cc1)C(=O)N[C@@H](CCCN=C(N)N)C(=O)N[C@H]1CSSC[C@@H](C(=O)N[C@@H](CO)C(=O)N2CCC[C@H]2C(=O)N2CCC[C@H]2C(=O)N[C@@H](CCCCN)C(=O)N[C@@H](CC(=O)O)C(N)=O)NC(=O)[C@H](Cc2c[nH]c3ccccc23)NC(=O)[C@H](CCCN=C(N)N)NC(=O)[C@@H](Cc2ccccc2)NC(=O)[C@H](Cc2c[nH]cn2)NC(=O)[C@H](CCC(=O)O)NC1=O`, for which the Ki is greater than 500 nM on Melanocortin receptor 5, 0.57 nM in experiment [1], 0.52 nM at Melanocortin receptor 4 [2] and 7.91 nM at Melanocortin receptor 3 [4]. In addition, the EC50 on Melanocortin receptor 4 [3] worked out at 0.24 nM.
In the case of `CC(=O)N[C@@H](Cc1ccc(O)cc1)C(=O)N[C@@H](CCCNC(=N)N)C(=O)N[C@H]1CSSC[C@@H](C(N)=O)NC(=O)[C@H](Cc2c[nH]c3ccccc23)NC(=O)[C@H](CCCNC(=N)N)NC(=O)[C@@H](Cc2ccccc2)NC(=O)[C@H](Cc2cncn2C)NC(=O)[C@H](CCC(=O)O)NC1=O`, the Ki on Melanocortin receptor 5 is greater than 500 nM; in experiment [1] it was greater than 500 nM; on Melanocortin receptor 4 [2], 6.6 nM; on Melanocortin receptor 3 [4], greater than 500 nM. On Melanocortin receptor 4 [3], this compound returned a 50% effective concentration (EC50) of 0.54 nM.
In the case of `CC(=O)N[C@@H](Cc1ccc(O)cc1)C(=O)N[C@@H](CCCNC(=N)N)C(=O)N[C@H]1CSSC[C@@H](C(N)=O)NC(=O)[C@H](Cc2c[nH]c3ccccc23)NC(=O)[C@H](CCCNC(=N)N)NC(=O)[C@@H](Cc2ccccc2)NC(=O)[C@H](Cc2c[nH]cn2)NC(=O)[C@H](CCC(=O)O)NC1=O`, the Ki at Melanocortin receptor 4 [5] was 0.52 nM; on Melanocortin receptor 5, greater than 500 nM; in experiment [1], 17.1 nM; on Melanocortin receptor 4 [2], 0.77 nM. For the same compound, the EC50 at Melanocortin receptor 4 [3] worked out at 0.27 nM.
For the compound `CSCC[C@H](NC(=O)[C@H](CCCNC(=N)N)NC(=O)[C@H](Cc1ccc(O)cc1)NC(C)=O)C(=O)N[C@@H](CCC(=O)O)C(=O)N[C@@H](Cc1cnc[nH]1)C(=O)N[C@H](Cc1ccccc1)C(=O)N[C@@H](CCCNC(=N)N)C(=O)N[C@@H](Cc1c[nH]c2ccccc12)C(=O)NCC(N)=O`, the inhibition constant Ki on Melanocortin receptor 5 was determined as 0.84 nM; in experiment [1] it was 0.21 nM; on Melanocortin receptor 4 [2], 0.55 nM; on Melanocortin receptor 3 [4], 1.44 nM. Also, on Melanocortin receptor 4 [3], the EC50 came out at 0.16 nM.
With `CC(=O)N[C@H](CCCNC(=N)N)C(=O)N[C@H]1CSSC[C@@H](C(N)=O)NC(=O)[C@H](Cc2c[nH]c3ccccc23)NC(=O)[C@H](CCCNC(=N)N)NC(=O)[C@@H](Cc2ccccc2)NC(=O)[C@H](Cc2c[nH]cn2)NC(=O)[C@H](CCC(=O)O)NC1=O`, the Ki was 0.39 nM at Melanocortin receptor 4 [5], greater than 500 nM on Melanocortin receptor 5, 16.8 nM in experiment [1] and 56.8 nM on Melanocortin receptor 3 [4]. In addition, it took 1.61 nM to reach a half-maximal effect on Melanocortin receptor 3 [6] (EC50).
For the compound `CC(=O)N[C@H]1CSSC[C@@H](C(N)=O)NC(=O)[C@H](Cc2c[nH]c3ccccc23)NC(=O)[C@H](CCCNC(=N)N)NC(=O)[C@@H](Cc2ccccc2)NC(=O)[C@H](Cc2c[nH]cn2)NC(=O)[C@H](CCC(=O)O)NC1=O`, the Ki was greater than 500 nM on Melanocortin receptor 5 and 67.1 nM in experiment [1].
`CC(=O)N[C@@H](Cc1ccc(O)cc1)C(=O)N[C@@H](CCCNC(=N)N)C(=O)N[C@H]1CSSC[C@@H](C(N)=O)NC(=O)[C@H](Cc2c[nH]c3ccccc23)NC(=O)[C@H](CCCNC(=N)N)NC(=O)[C@@H](Cc2ccc(F)cc2)NC(=O)[C@H](Cc2c[nH]cn2)NC(=O)[C@H](CCC(=O)O)NC1=O`: the Ki at Melanocortin receptor 5 is 239 nM; in experiment [1], 9.91 nM; at Melanocortin receptor 4 [2] it was 0.28 nM; on Melanocortin receptor 3 [4], 15.9 nM. At Melanocortin receptor 4 [3], a half-maximal response (EC50) required 0.12 nM.
For the compound `CC(=O)N[C@@H](CCCNC(=N)N)C(=O)N[C@H]1CSSC[C@@H](C(N)=O)NC(=O)[C@H](Cc2c[nH]c3ccccc23)NC(=O)[C@H](CCCNC(=N)N)NC(=O)[C@@H](Cc2ccccc2)NC(=O)[C@H](Cc2c[nH]cn2)NC(=O)[C@H](CCC(=O)O)NC1=O`, the Ki is greater than 500 nM at Melanocortin receptor 5, 10.3 nM in experiment [1] and 33.8 nM at Melanocortin receptor 3 [4]. The compound further yielded an EC50 on Melanocortin receptor 3 [6] of 0.68 nM.
With `CC(=O)N[C@@H](Cc1ccc(O)cc1)C(=O)N[C@@H](CCCN=C(N)N)C(=O)N[C@H]1CSSC[C@@H](C(N)=O)NC(=O)[C@H](Cc2c[nH]c3ccccc23)NC(=O)[C@H](CCCN=C(N)N)NC(=O)[C@H](Cc2ccccc2)NC(=O)[C@H](Cc2c[nH]cn2)NC(=O)[C@H](CCC(=O)O)NC1=O`, the Ki on Melanocortin receptor 5 is greater than 500 nM; in experiment [1], 147 nM; at Melanocortin receptor 4 [2] it was 30.5 nM; on Melanocortin receptor 3 [4] it was greater than 500 nM. Also, a half-maximal response on Melanocortin receptor 4 [3] (EC50) required 5.24 nM.
`CC(=O)N[C@@H](Cc1ccc(O)cc1)C(=O)N[C@@H](CCCNC(N)=O)C(=O)N[C@H]1CSSC[C@@H](C(N)=O)NC(=O)[C@H](Cc2c[nH]c3ccccc23)NC(=O)[C@H](CCCNC(=N)N)NC(=O)[C@@H](Cc2ccccc2)NC(=O)[C@H](Cc2c[nH]cn2)NC(=O)[C@H](CCC(=O)O)NC1=O`: the Ki was greater than 500 nM on Melanocortin receptor 5, 49.4 nM in experiment [1], 2.54 nM on Melanocortin receptor 4 [2] and 313 nM on Melanocortin receptor 3 [4]. Further, at Melanocortin receptor 4 [3], the EC50 amounted to 0.79 nM.
Take `CC(=O)N[C@@H](Cc1ccc(O)cc1)C(=O)N[C@@H](CCCCN)C(=O)N[C@H]1CSSC[C@@H](C(N)=O)NC(=O)[C@H](Cc2c[nH]c3ccccc23)NC(=O)[C@H](CCCNC(=N)N)NC(=O)[C@@H](Cc2ccccc2)NC(=O)[C@H](Cc2c[nH]cn2)NC(=O)[C@H](CCC(=O)O)NC1=O`: the Ki was greater than 500 nM on Melanocortin receptor 5, 15.8 nM in experiment [1] and 1.22 nM on Melanocortin receptor 4 [2]. Further, the EC50 on Melanocortin receptor 4 [3] was 0.1 nM.
Consider `CC(=O)N[C@@H](Cc1ccc(O)cc1)C(=O)N[C@@H](CCCN=C(N)N)C(=O)N[C@H]1CSSC[C@@H](C(N)=O)NC(=O)[C@H](Cc2c[nH]c3ccccc23)NC(=O)[C@H](CCCN=C(N)N)NC(=O)[C@@H](Cc2ccc3ccccc3c2)NC(=O)[C@H](Cc2c[nH]cn2)NC(=O)[C@H](CCC(=O)O)NC1=O`, for which the Ki on Melanocortin receptor 5 came to 37.8 nM; in experiment [1] it was 121 nM; on Melanocortin receptor 4 [2], 0.3 nM; at Melanocortin receptor 3 [4], 6.84 nM. Moreover, at Melanocortin receptor 4 [3], it took 0.65 nM to reach a half-maximal effect (EC50).
With `CSCC[C@H](NC(=O)[C@H](CCCN=C(N)N)NC(=O)[C@H](Cc1ccc(O)cc1)NC(=O)[C@@H]1CCCN1C(=O)CNC(=O)[C@H](CCC(=O)O)NC(=O)[C@H](CC(=O)O)NC(=O)[C@H](CCCCN)NC(=O)[C@H](CCCCN)NC(=O)[C@H](CCC(=O)O)NC(=O)[C@H](C)N)C(=O)N[C@@H](CCC(=O)O)C(=O)N[C@@H](Cc1c[nH]cn1)C(=O)N[C@@H](Cc1ccccc1)C(=O)N[C@@H](CCCN=C(N)N)C(=O)N[C@@H](Cc1c[nH]c2ccccc12)C(=O)NCC(=O)N[C@@H](CO)C(=O)N1CCC[C@H]1C(=O)N1CCC[C@H]1C(=O)N[C@@H](CCCCN)C(=O)N[C@@H](CC(=O)O)C(=O)O`, the Ki at Melanocortin receptor 5 was 76.9 nM; in experiment [1], 0.89 nM; at Melanocortin receptor 3 [4], 10.6 nM.
`CSCC[C@H](NC(=O)[C@H](CCCNC(=N)N)NC(=O)[C@H](Cc1ccc(O)cc1)NC(C)=O)C(=O)N[C@@H](CCC(=O)O)C(=O)N[C@@H](Cc1cnc[nH]1)C(=O)N[C@H](Cc1ccccc1)C(=O)N[C@@H](CCCNC(=N)N)C(=O)N[C@@H](Cc1c[nH]c2ccccc12)C(=O)NCC(=O)N[C@@H](CO)C(=O)N1CCC[C@H]1C(=O)N1CCC[C@H]1C(=O)N[C@@H](CCCCN)C(=O)N[C@@H](CC(=O)O)C(N)=O`: the Ki on Melanocortin receptor 5 is 0.26 nM; in experiment [1], 0.09 nM; on Melanocortin receptor 4 [2], 0.27 nM; on Melanocortin receptor 3 [4], 0.11 nM. It took 0.56 nM to reach a half-maximal effect on Melanocortin receptor 4 [3] (EC50).
In the same order, the values of `CC(=O)N[C@@H](Cc1ccc(O)cc1)C(=O)N[C@@H](CCCNC(=N)N)C(=O)N[C@H]1CSSC[C@@H](C(N)=O)NC(=O)[C@H](Cc2c[nH]c3ccccc23)NC(=O)[C@H](CCCNC(=N)N)NC(=O)[C@@H](Cc2ccc(Cl)cc2)NC(=O)[C@H](Cc2c[nH]cn2)NC(=O)[C@H](CCC(=O)O)NC1=O` are 42.2 nM, 8.22 nM, 0.14 nM, 3.12 nM and 0.06 nM.
For `CSC[C@H](NC(=O)[C@H](Cc1c[nH]c2ccccc12)NC(=O)[C@H](CCCNC(=N)N)NC(=O)[C@@H](Cc1ccccc1)NC(=O)[C@H](Cc1cnc[nH]1)NC(=O)[C@H](CCC(=O)O)NC(=O)[C@H](CSC)NC(=O)[C@H](CCCNC(=N)N)NC(=O)[C@H](Cc1ccc(O)cc1)NC(C)=O)C(N)=O`, in that order: 62.1 nM, 2.73 nM, 13.2 nM, 166 nM and 0.92 nM.
For H-GPYRMEHFRWGSPPKD-NH2, in that order: 24.8 nM, 0.51 nM, 5.28 nM, 9.23 nM and 0.67 nM.
